What was measured:
[1] = test system: differentiated U937 cells; test: MTT assay in differentiated U937 cells; type: cell-based, human; set-up: key: Negative: no significant toxic effect observed in MTT assay
Description: Differentiated U937 cells were pre-incubated with compound for 4 hrs in 5% FCS or 10% FCS for 24 hrs and 72 hr. […] After 1 hr incubation, the media were removed, 200 ul of DMSO added to each well and the plates were shaken lightly for 1 h prior to reading the absorbance at 550 nm. The percentage loss of cell viability was calculated for each well relative to vehicle (0.5% DMSO)-treatment. Consequently an apparent increase in cell viability for drug treatment relative to vehicle is tabulated as a negative percentage.

[2] = test system: LPS-induced neutrophil accumulation in BALF; test: LPS-induced neutrophilia in the mouse: duration of action; type: in vivo; conditions: intra tracheal dosing, 12 or more hours of pre-dosing, BALF 8 h after LPS
Description: Non-fasted mice were dosed by the intra tracheal route with either vehicle, or the test substance at the time points (“pre-dose”) indicated with respect to the start of LPS treatment. At T=0, mice were placed into an exposure chamber and exposed to LPS. Eight hours after LPS challenge, animals were under anesthetized, the trachea cannulated and BALF extracted by infusing and withdrawing 1 ml of PBS into the lungs via a tracheal catheter. Total and differential white cell counts in the BALF samples were measured using a Neubaur haemocytometer. Cytospin smears of the BALF samples were prepared by centrifugation at 200 rpm for 5 min at room temperature and stained using a DiffQuik stain system (Dade Behring). Cells were counted using oil immersion microscopy.
Data for neutrophil numbers is reported as total and differential number (test substance relative to vehicle) of cells per mL of BALF, mean±S.E.M. (n=8).

Q: What does the source list for `COCC(=O)Nc1cc(COc2ccc(NC(=O)Nc3cc(C(C)(C)C)nn3-c3ccc(C)cc3)c3ccccc23)ccn1` [Example 1, N-(4-((4-(3-(3-tert-Butyl-1-p-tolyl-1H-pyrazol-5-yl)ureido)naphthalen-1-yloxy)methyl)pyridin-2-yl)-2-methoxyacetamide]?
A: Differentiated U937 cells MTT Assay 4, 24 h (10 μg/ml) [1]: Negative^2; inhibition of LPS-induced neutrophil accumulation [2]: significant inhibition

— patent US8975285B2, “P38 MAP kinase inhibitors” (Respivert Ltd., priority 2008, dated 2015)
